# Patent US20050090505A1, “Methods of reducing risk of infection from pathogens” (priority 2003, published 2005)
# Counter-ions that a name gives are not always drawn.
# Assays:
# [1] = target: T1, airway epithelial sodium currents (sodium channel) (UniProt A0A8I3MKE6+A0A8I3Q679+Q95165); experiment: Sodium channel blocking activity: inhibition of short circuit current (ISC) in airway epithelial monolayers mounted in Ussing chambers; type: cell-based, human, dog, sheep or rodent; details: for Fold Amiloride** (PSA 4022 = 100): relative potency for PSA 4022 = 100 using EC50 from PSA 4022 in same run; for EC50: Selected Alaphatic Pyrazinoylguanidines (Formula II), mean ± spread, read-out: EC50
# T1 sequence (A0A8I3MKE6 1-646): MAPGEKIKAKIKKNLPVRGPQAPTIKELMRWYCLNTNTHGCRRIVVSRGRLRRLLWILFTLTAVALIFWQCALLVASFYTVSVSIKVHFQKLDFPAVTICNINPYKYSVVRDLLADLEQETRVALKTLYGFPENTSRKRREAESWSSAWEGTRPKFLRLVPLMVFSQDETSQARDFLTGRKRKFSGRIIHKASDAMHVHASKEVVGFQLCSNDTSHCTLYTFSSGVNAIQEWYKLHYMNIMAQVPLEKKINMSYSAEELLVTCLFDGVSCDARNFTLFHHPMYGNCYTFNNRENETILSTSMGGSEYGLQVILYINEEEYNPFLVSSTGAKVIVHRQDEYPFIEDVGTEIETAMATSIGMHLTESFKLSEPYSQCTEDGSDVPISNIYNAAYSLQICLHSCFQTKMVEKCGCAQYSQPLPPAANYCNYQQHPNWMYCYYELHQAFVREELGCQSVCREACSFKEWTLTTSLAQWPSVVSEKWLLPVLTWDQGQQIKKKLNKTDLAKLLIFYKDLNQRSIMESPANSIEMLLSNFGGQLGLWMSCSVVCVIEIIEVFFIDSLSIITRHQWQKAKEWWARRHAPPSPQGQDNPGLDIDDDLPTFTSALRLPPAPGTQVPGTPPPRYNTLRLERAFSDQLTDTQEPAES
# T1 sequence (A0A8I3Q679 1-649): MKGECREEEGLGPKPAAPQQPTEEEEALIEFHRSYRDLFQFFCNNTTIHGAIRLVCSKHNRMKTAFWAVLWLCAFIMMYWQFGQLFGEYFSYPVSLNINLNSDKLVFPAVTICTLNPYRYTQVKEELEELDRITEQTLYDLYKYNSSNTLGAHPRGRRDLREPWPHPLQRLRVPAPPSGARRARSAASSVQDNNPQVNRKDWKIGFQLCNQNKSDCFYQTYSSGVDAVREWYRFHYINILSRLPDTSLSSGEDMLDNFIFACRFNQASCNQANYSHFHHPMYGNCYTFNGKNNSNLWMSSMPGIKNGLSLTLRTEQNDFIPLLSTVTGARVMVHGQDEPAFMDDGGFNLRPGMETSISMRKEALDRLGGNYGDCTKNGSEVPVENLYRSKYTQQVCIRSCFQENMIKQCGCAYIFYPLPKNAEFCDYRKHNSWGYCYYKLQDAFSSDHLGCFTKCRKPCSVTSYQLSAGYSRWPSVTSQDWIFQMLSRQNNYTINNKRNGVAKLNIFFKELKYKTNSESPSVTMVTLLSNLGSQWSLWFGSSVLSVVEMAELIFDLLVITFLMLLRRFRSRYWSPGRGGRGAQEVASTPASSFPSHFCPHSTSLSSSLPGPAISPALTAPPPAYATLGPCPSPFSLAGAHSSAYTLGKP
# T1 sequence (Q95165 1-641): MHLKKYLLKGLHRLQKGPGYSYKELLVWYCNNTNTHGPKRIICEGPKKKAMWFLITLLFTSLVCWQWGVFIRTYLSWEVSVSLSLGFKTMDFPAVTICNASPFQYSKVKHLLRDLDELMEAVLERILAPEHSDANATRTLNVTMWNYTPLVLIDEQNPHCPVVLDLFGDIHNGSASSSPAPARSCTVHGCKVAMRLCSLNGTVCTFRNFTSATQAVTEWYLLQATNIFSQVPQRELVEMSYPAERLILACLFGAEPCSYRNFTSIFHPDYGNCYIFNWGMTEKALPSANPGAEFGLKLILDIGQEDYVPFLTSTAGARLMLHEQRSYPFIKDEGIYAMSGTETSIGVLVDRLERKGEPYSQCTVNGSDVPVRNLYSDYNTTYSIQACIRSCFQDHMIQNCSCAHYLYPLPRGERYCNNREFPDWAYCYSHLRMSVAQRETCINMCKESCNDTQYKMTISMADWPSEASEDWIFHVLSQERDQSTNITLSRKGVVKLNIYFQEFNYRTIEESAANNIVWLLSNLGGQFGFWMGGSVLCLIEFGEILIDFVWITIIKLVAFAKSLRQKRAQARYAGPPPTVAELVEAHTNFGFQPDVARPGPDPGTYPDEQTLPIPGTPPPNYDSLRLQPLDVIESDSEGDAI
# Method: In Vitro Measure of Sodium Channel Blocking Activity and Reversibility
# One assay used to assess mechanism of action and/or potency of the compounds of the present invention involves the determination of lumenal drug inhibition of airway epithelial sodium currents measured under short circuit current (ISC) using airway epithelial monolayers mounted in Ussing chambers. Cells obtained from freshly excised human, dog, sheep or rodent airways are seeded onto porous 0.4 micron Snapwell™ Inserts (CoStar), cultured at air-liquid interface (ALI) conditions in hormonally defined media, and assayed for sodium transport activity (ISC) while bathed in Krebs Bicarbonate Ringer (KBR) in Using chambers. All test drug additions are to the lumenal bath with half-log dose addition protocols (from 1×10^−11 M to 3×10^−5 M), and the cumulative change in ISC (inhibition) recorded. All drugs are prepared in dimethyl sulfoxide as stock solutions at a concentration of 1×10^−2 M and stored at −20° C. Eight preparations are typically run in parallel; two preparations per run incorporate amiloride and/or benzamil as positive controls. After the maximal concentration (5×10^−5 M) is administered, the lumenal bath is exchanged three times with fresh drug-free KBR solution, and the resultant ISC measured after each wash for approximately 5 minutes in duration. Reversibility is defined as the percent return to the baseline value for sodium current after the third wash. All data from the voltage clamps are collected via a computer interface and analyzed off-line.
# Dose-effect relationships for all compounds are considered and analyzed by the Prism 3.0 program. IC50 values, maximal effective concentrations, and reversibility are calculated and compared to amiloride and benzamil as positive controls.
SMILES,Fold Amiloride** (PSA 4022 = 100) ([1]; Alaphatic Pyrazinoylguanidines),EC50 [1],melting point,Fold Amiloride** (PSA 4022 = 100) ([1]; Capped Pyrazinoylguanidines)
CC(C)(C)OC(=O)NCCCOCCCNC(=N)NC(=O)c1nc(Cl)c(N)nc1N [compound 19333],7 ± 2,81 ± 8 nM,62 to 65 °C (dec.),–
"N#CCOc1ccc(CCCCNC(=N)NC(=O)c2nc(Cl)c(N)nc2N)cc1 [compound 16208, N-[4-(4-cyanomethoxyphenyl)butyl]-N′-(3,5-diamino-6-chloro-pyrazine-2-carbonyl)guanidine]",–,–,129 to 132 °C,52 ± 21
"CN(C)C(=S)Oc1ccc(CCCCNC(=N)NC(=O)c2nc(Cl)c(N)nc2N)cc1 [compound 17846, dimethylthiocarbamic acid O-(4-{4-[N′-(3,5-diamino-6-chloropyrazine-2-carbonyl)guanidino]butyl}phenyl) ester]",–,–,102 to 105 °C,104 ± 49
"N=C(NCCCCc1ccc(OCC(O)COCC(O)CO)cc1)NC(=O)c1nc(Cl)c(N)nc1N (stereo not drawn) [compound 15143, N-(3,5-diamino-6-chloropyrazine-2-carbonyl)-N′-(4-{4-[3-(2,3-dihydroxypropoxy)-2-hydroxypropoxy]phenyl}butyl)guanidine]",–,–,73 to 82 °C (dec.),107 ± 11
"N=C(NCCCCc1ccc(OCC(=O)Nc2ncc[nH]2)cc1)NC(=O)c1nc(Cl)c(N)nc1N (as salt: hydrochloride) [compound 16437, 2-(4-{4-[N′-(3,5-diamino-6-chloropyrazine-2-carbonyl)guanidino]-butyl}phenoxy)-N-(1H-imidazol-2-yl)acetamide dihydrochloride]",–,–,172 to 174 °C,–
N=C(N)NCCCOCCCNC(=N)NC(=O)c1nc(Cl)c(N)nc1N (as salt: hydrochloride),–,–,72 to 75 °C (dec.),–
"N=C(NCCCCCCCCCN)NC(=O)c1nc(Cl)c(N)nc1N (as salt: hydrochloride) [compound 19335, N-(9-aminononyl)-N′-(3,5-diamino-6-chloropyrazine-2-carbonyl)-guanidine dihydrochloride]",–,–,155 to 157 °C (dec.),–
"Cl.N=C(NCCCCc1ccc(OCCCc2nnn[nH]2)cc1)NC(=O)c1nc(Cl)c(N)nc1N [compound 17926, N-(3,5-diamino-6-chloropyrazine-2-carbonyl)-N′-(4-{4-[3-(1H-tetrazol-5-yl)propoxy]phenyl}butyl)guanidine hydrochloride]",–,–,125 to 127 °C (dec.),29 ± 12
"N=C(NCCCCCCCN)NC(=O)c1nc(Cl)c(N)nc1N [compound 18705, N-(7-aminoheptyl)-N′-(3,5-diamino-6-chloropyrazine-2-carbonyl)guanidine]",8 ± 2,99 ± 31 nM,185 to 187 °C (dec.),–
"N=C(NCCCCc1ccc(OCC(=O)Nc2ccccc2)cc1)NC(=O)c1nc(Cl)c(N)nc1N [compound 17482, 2-(4-{4-[N′-(3,5-diamino-6-chloropyrazine-2-carbonyl)guanidino]-butyl}phenoxy)-N-phenylacetamide]",–,–,168 to 170 °C,39 ± 6
"N=C(NCCCCCCCCCCN)NC(=O)c1nc(Cl)c(N)nc1N (as salt: hydrochloride) [compound 19487, N-(10-aminodecyl)-N′-(3,5-diamino-6-chloropyrazine-2-carbonyl)-guanidine dihydrochloride]",–,–,168 to 170 °C,–
"N=C(N)NCCCCCCCNC(=N)NC(=O)c1nc(Cl)c(N)nc1N (as salt: hydrochloride) [compound 19155, N-{7-[N′-(3,5-diamino-6-chloropyrazine-2-carbonyl)guanidino]heptyl}guanidine dihydrochloride]",–,–,140 to 142 °C,–
"N=C(NCCCCc1ccc(OCC(=O)NCC(N)=O)cc1)NC(=O)c1nc(Cl)c(N)nc1N (as salt: HCl) [compound 16314, N-carbamoylmethyl-2-(4-{4-[N′-(3,5-diamino-6-chloropyrazine-2-carbonyl)guanidino]butyl}phenoxy)acetamide]",–,–,178 to 180 °C (dec.),–
"N=C(NCCCCCCN)NC(=O)c1nc(Cl)c(N)nc1N (as salt: hydrochloride) [compound 18706, N-(6-aminohexyl)-N′-(3,5-diamino-6-chloropyrazine-2-carbonyl)guanidine dihydrochloride]",–,–,> 240 °C,–
CC(C)(C)OC(=O)NCCCCCCCCCCNC(=N)NC(=O)c1nc(Cl)c(N)nc1N,–,–,186 to 188 °C,–
"N=C(NCCCCC1CCN(CCO)CC1)NC(=O)c1nc(Cl)c(N)nc1N (as salt: hydrochloride) [compound 25193, N-(3,5-diamino-6-chloropyrazine-2-carbonyl)-N′-{4-[1-(2-hydroxyethyl)piperidin-4-yl]butyl}guanidine dihydrochloride]",–,–,168 to 170 °C,–
CC(C)(C)OC(=O)NCCCCCCCCCCCNC(=N)NC(=O)c1nc(Cl)c(N)nc1N,–,–,82 to 84 °C,–
"N=C(N)NCCCCCCCCCCCCNC(=N)NC(=O)c1nc(Cl)c(N)nc1N (as salt: hydrochloride) [compound 23683, N-{12-[N′-(3,5-diamino-6-chloropyrazine-2-carbonyl)guanidino]dodecyl)guanidine dihydrochloride]",–,–,145 to 147 °C,–
N=C(N)NCCOCCOCCNC(=N)NC(=O)c1nc(Cl)c(N)nc1N (as salt: hydrochloride),–,–,108 to 112 °C (dec.),–
"N=C(NCCCCCCCCCCCCN)NC(=O)c1nc(Cl)c(N)nc1N (as salt: hydrochloride) [compound 23609, N-(12-aminododecyl)-N′-(3,5-diamino-6-chloropyrazine-2-carbonyl)-guanidine dihydrochloride]",–,–,235 to 237 °C,–
"N=C(N)NCCCCCCCCNC(=N)NC(=O)c1nc(Cl)c(N)nc1N (as salt: hydrochloride) [compound 19604, N-{8-[N′-(3,5-diamino-6-chloropyrazine-2-carbonyl)guanidino]octyl}-guanidine dihydrochloride]",–,–,130 to 132 °C,–
